Measurements as given in publication PMC7106726, “Robust high-throughput assays to assess discrete steps in ubiquitination and related cascades” (BMC Molecular and Cell Biology, 2020).
Where two headings read alike, the source gives them in different places.

What was measured:
FLAG-Uba1 [1] = biological target: T1, FLAG-Uba1 (Homo sapiens, UniProt P22314); experiment: AlphaScreen Uba1~ubiquitin thioester formation; assay type: biochemical
T1 construct: GST- and FLAG-tagged human Uba1 in pBJ842, expressed in S. cerevisiae BJ5654, GST cleaved with PreScission protease, FLAG tag kept
T1 sequence (P22314 2-1058): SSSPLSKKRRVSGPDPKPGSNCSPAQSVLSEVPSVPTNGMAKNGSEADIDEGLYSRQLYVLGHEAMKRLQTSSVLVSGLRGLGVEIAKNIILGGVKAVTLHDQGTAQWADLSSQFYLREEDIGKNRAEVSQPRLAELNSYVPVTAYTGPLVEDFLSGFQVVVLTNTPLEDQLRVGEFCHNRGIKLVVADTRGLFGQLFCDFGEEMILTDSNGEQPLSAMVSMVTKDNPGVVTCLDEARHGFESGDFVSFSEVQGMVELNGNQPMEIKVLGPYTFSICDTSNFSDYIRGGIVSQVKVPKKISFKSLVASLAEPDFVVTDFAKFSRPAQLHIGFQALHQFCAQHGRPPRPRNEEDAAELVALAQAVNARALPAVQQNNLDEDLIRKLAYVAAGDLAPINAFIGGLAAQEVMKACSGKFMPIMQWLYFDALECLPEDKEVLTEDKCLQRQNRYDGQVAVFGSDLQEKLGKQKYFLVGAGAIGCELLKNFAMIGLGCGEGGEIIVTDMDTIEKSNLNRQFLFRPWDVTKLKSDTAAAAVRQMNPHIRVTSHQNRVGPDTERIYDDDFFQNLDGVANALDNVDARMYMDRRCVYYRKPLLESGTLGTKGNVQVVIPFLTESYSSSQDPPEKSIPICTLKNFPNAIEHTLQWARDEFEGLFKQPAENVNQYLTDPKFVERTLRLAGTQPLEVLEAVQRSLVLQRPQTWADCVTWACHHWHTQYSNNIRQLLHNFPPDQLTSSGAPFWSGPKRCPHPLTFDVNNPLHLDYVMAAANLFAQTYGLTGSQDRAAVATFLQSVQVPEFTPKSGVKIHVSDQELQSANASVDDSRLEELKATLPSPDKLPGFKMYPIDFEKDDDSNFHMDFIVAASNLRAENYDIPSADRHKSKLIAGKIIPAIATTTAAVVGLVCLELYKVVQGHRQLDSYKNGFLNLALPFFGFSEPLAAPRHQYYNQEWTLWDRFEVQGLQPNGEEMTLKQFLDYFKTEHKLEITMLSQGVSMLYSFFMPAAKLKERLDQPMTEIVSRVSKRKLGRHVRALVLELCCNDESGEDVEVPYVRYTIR

FLAG-Uba1 [2] = biological target: T1, FLAG-Uba1; experiment: AlphaScreen Uba1~ubiquitin thioester formation; assay type: biochemical; details: read-out: IC50for inhibition of PCNA ubiquitination (Alpha)
Description: AlphaScreen Uba1~ubiquitin thioester formation on FLAG-Uba1

[3] = read-out: IC50for inhibition of Uba1~Ub thioester formation (Alpha)
[4] = read-out: IC50for inhibition of PCNA ubiquitination (Alpha)

Compound: Oc1cc(O)c2c(c1)O[C@H](c1ccc(O)c(O)c1)[C@@H](O)C2 [Cat]
- IC50 (FLAG-Uba1 [1]; read-out: IC50for inhibition of PCNA ubiquitination (Western blot) [19]): > 500 µM

Compound: CCCCCCCCCCCCOC(=O)c1cc(O)c(O)c(O)c1 [DG]
- IC50 (FLAG-Uba1 [1]; [3]): 44.4 µM

Compound: O=C1c2c(O)cc(O)cc2O[C@H](c2cc(O)c(O)c(O)c2)[C@H]1O [DM]
- IC50 (FLAG-Uba1 [1]; [3]): 27.5 µM

Compound: O=C(O[C@@H]1Cc2c(O)cc(O)cc2O[C@@H]1c1ccc(O)c(O)c1)c1cc(O)c(O)c(O)c1 [ECG]
- IC50 (FLAG-Uba1 [1]; [3]): 0.769 µM

Compound: Oc1cc(O)c2c(c1)O[C@H](c1ccc(O)c(O)c1)[C@H](O)C2 [EC]
- IC50 (FLAG-Uba1 [1]; [4]): > 500 µM

Compound: Oc1cc(O)c2c(c1)O[C@H](c1cc(O)c(O)c(O)c1)[C@H](O)C2 [EGC]
- IC50 (FLAG-Uba1 [1]; [3]): 5.96 µM

Compound: O=C(O)c1cc(O)c(O)c(O)c1 [GA]
- IC50 (FLAG-Uba1 [2]): > 500 µM

Compound: O=c1c(O)c(-c2cc(O)c(O)c(O)c2)oc2cc(O)cc(O)c12 [Myr]
- IC50 (FLAG-Uba1 [1]; [3]): 1.59 µM

Compound: CCCCCCCCOC(=O)c1cc(O)c(O)c(O)c1 [OG]
- IC50 (FLAG-Uba1 [1]; 15 min preincubation, biotin-ubiquitin, 2 mM ATP, 8 mM MgCl2, pH 7.5, 25 °C, 30 min, 1% DMSO, read-out: IC50for inhibition of Uba1~Ub thioester formation (Alpha)): 13.4 µM

Compound: CCCOC(=O)c1cc(O)c(O)c(O)c1 [PG]
- IC50 (FLAG-Uba1 [1]; [4]): > 500 µM
